From PubChem BioAssay AID256 (DTP/NCI, 2004)
Where “and” joins values, the source holds several entries; their conditions need not be identical. Equal entries are not always repeated. Inconclusive results and toxic doses are left out.

Tested on: CD2F1 mice, L1210 leukemia ip, survival T/C
Assay: NCI In Vivo Anticancer Drug Screen. Data for tumor model L1210 Leukemia (intraperitoneal) in CD2F1 (CDF1) mice
Settings: higher = longer survival
Outline: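 Transplantable tumor in mice; compound-treated vs vehicle-treated groups. Read-out = treated/control ratio of the measured endpoint.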

[1] = endpoint: mean survival time, dose: 100.0 mg/kg/injection, schedule: Q04DX003 (ip), vehicle: saline with Tween-80
[2] = endpoint: mean survival time, dose: 200.0 mg/kg/injection, schedule: Q04DX003 (ip), vehicle: saline with Tween-80
[3] = endpoint: mean survival time, dose: 400.0 mg/kg/injection, schedule: Q04DX003 (ip), vehicle: saline with Tween-80

Compound: CC(=O)OC1CCC2(C)C(CCC3C2C(=O)C(OC(C)=O)C2(C)C3CC3OC4(CCC(C)CO4)C(C)C32)C1 (stereo unspecified)
- T/C [1]: 87 % of control
- T/C [2]: 87 % of control
- T/C [3]: 89 % of control

Compound: C=CN1CCCC1=O (tested in a mixture with another compound)
- T/C [1]: 95 % of control
- T/C [2]: 91 % of control
- T/C [3]: 98 % of control

Compound: COc1ccc(NC(=O)C(Cl)Cl)ccc1=O
- T/C (endpoint: mean survival time, dose: 100.0 mg/kg/injection, schedule: Q01DX009 (ip), vehicle: saline with Tween-80): 96 % of control
- T/C [1]: 97 % of control
- T/C (endpoint: mean survival time, dose: 200.0 mg/kg/injection, schedule: Q01DX009 (ip), vehicle: saline with Tween-80): 95 % of control
- T/C [2]: 92 % of control
- T/C [3]: 98 % of control

Compound: O=NN(CCCl)C(=O)NC1CCCCC1
- T/C (endpoint: mean survival time, dose: 0.5 mg/kg/injection, schedule: Q03HX008 (oral), vehicle: saline): 214 % of control
- T/C (endpoint: mean survival time, dose: 0.5 mg/kg/injection, schedule: Q03HX024 (oral), vehicle: saline): 290 % of control
- T/C (endpoint: mean survival time, dose: 0.5 mg/kg/injection, schedule: Q03HX040 (oral), vehicle: saline): 200 % of control
- T/C (endpoint: mean survival time, dose: 1.0 mg/kg/injection, schedule: Q01DX001 (ip), vehicle: saline): 98 % of control
- T/C (endpoint: mean survival time, dose: 1.0 mg/kg/injection, schedule: Q01DX005 (ip), vehicle: saline): 113 % of control
- T/C (endpoint: mean survival time, dose: 1.0 mg/kg/injection, schedule: Q01DX009 (ip), vehicle: saline): 100 % of control
- T/C (endpoint: mean survival time, dose: 1.0 mg/kg/injection, schedule: Q03HX024 (oral), vehicle: saline): 194 % of control
- T/C (endpoint: mean survival time, dose: 1.0 mg/kg/injection, schedule: Q03HX040 (oral), vehicle: saline): 96 % of control
- T/C (endpoint: mean survival time, dose: 2.0 mg/kg/injection, schedule: Q03HX008 (oral), vehicle: saline): 338 % of control
- T/C (endpoint: mean survival time, dose: 4.0 mg/kg/injection, schedule: Q01DX001 (ip), vehicle: other): 109 % of control
- T/C (endpoint: mean survival time, dose: 4.0 mg/kg/injection, schedule: Q03HX024 (oral), vehicle: saline): 96 % of control
- T/C (endpoint: mean survival time, dose: 8.0 mg/kg/injection, schedule: Q01DX001 (ip), vehicle: saline): 108 % of control
- T/C (endpoint: mean survival time, dose: 8.0 mg/kg/injection, schedule: Q01DX001 (oral), vehicle: saline): 100 % of control
- T/C (endpoint: mean survival time, dose: 8.0 mg/kg/injection, schedule: Q01DX005 (ip), vehicle: saline): 267 % of control
- T/C (endpoint: mean survival time, dose: 8.0 mg/kg/injection, schedule: Q01DX009 (ip), vehicle: saline): 191 % of control
- T/C (endpoint: mean survival time, dose: 8.0 mg/kg/injection, schedule: Q03HX008 (ip), vehicle: saline): 108 % of control
- T/C (endpoint: mean survival time, dose: 8.0 mg/kg/injection, schedule: Q04DX003 (ip), vehicle: saline): 124 % of control
- T/C (endpoint: mean survival time, dose: 9.0 mg/kg/injection, schedule: Q01DX001 (ip), vehicle: carboxymethylcellulose (CMC)): 111 % of control
- T/C (endpoint: mean survival time, dose: 16.0 mg/kg/injection, schedule: Q01DX001 (ip), vehicle: other): 169 % of control
- T/C (endpoint: mean survival time, dose: 16.0 mg/kg/injection, schedule: Q01DX005 (ip), vehicle: saline): 393 % of control
- T/C (endpoint: mean survival time, dose: 16.0 mg/kg/injection, schedule: Q01DX009 (ip), vehicle: saline): 315 % of control
- T/C (endpoint: mean survival time, dose: 16.0 mg/kg/injection, schedule: Q03HX024 (ip), vehicle: saline): 210 % of control
- T/C (endpoint: mean survival time, dose: 16.0 mg/kg/injection, schedule: Q03HX040 (ip), vehicle: saline): 217 % of control
- T/C (endpoint: mean survival time, dose: 16.0 mg/kg/injection, schedule: Q04DX003 (ip), vehicle: saline + alcohol): 158 % of control and 425 % of control
- T/C (endpoint: mean survival time, dose: 16.0 mg/kg/injection, schedule: Q04DX003 (ip), vehicle: saline): 279 % of control
- T/C (endpoint: mean survival time, dose: 22.0 mg/kg/injection, schedule: Q01DX001 (ip), vehicle: carboxymethylcellulose (CMC)): 178 % of control
- T/C (endpoint: mean survival time, dose: 32.0 mg/kg/injection, schedule: Q01DX001 (ip), vehicle: other): 348 % of control
- T/C (endpoint: mean survival time, dose: 32.0 mg/kg/injection, schedule: Q01DX001 (ip), vehicle: saline): 157 % of control
- T/C (endpoint: mean survival time, dose: 32.0 mg/kg/injection, schedule: Q01DX001 (oral), vehicle: saline): 118 % of control
- T/C (endpoint: mean survival time, dose: 32.0 mg/kg/injection, schedule: Q01DX005 (ip), vehicle: saline): 393 % of control
- T/C (endpoint: mean survival time, dose: 32.0 mg/kg/injection, schedule: Q01DX005 (oral), vehicle: saline): 310 % of control
- T/C (endpoint: mean survival time, dose: 32.0 mg/kg/injection, schedule: Q01DX009 (ip), vehicle: saline): 224 % of control
- T/C (endpoint: mean survival time, dose: 32.0 mg/kg/injection, schedule: Q01DX009 (oral), vehicle: saline): 159 % of control
- T/C (endpoint: mean survival time, dose: 32.0 mg/kg/injection, schedule: Q03HX008 (ip), vehicle: saline): 191 % of control
- T/C (endpoint: mean survival time, dose: 32.0 mg/kg/injection, schedule: Q03HX024 (ip), vehicle: saline): 421 % of control
- T/C (endpoint: mean survival time, dose: 32.0 mg/kg/injection, schedule: Q03HX040 (ip), vehicle: saline): 432 % of control
- T/C (endpoint: mean survival time, dose: 32.0 mg/kg/injection, schedule: Q04DX003 (ip), vehicle: saline + alcohol): 515 % of control
- T/C (endpoint: mean survival time, dose: 32.0 mg/kg/injection, schedule: Q04DX003 (ip), vehicle: saline): 406 % of control
- T/C (endpoint: mean survival time, dose: 32.0 mg/kg/injection, schedule: Q04DX003 (oral), vehicle: saline): 267 % of control
- T/C (endpoint: mean survival time, dose: 33.0 mg/kg/injection, schedule: Q01DX001 (ip), vehicle: carboxymethylcellulose (CMC)): 208 % of control
- T/C (endpoint: mean survival time, dose: 48.0 mg/kg/injection, schedule: Q04DX003 (ip), vehicle: saline + alcohol): 82 % of control
- T/C (endpoint: mean survival time, dose: 50.0 mg/kg/injection, schedule: Q01DX001 (ip), vehicle: carboxymethylcellulose (CMC)): 352 % of control
- T/C (endpoint: mean survival time, dose: 64.0 mg/kg/injection, schedule: Q01DX001 (ip), vehicle: other): 208 % of control
- T/C (endpoint: mean survival time, dose: 64.0 mg/kg/injection, schedule: Q01DX001 (ip), vehicle: saline): 411 % of control
- T/C (endpoint: mean survival time, dose: 64.0 mg/kg/injection, schedule: Q01DX005 (ip), vehicle: saline): 98 % of control
- T/C (endpoint: mean survival time, dose: 64.0 mg/kg/injection, schedule: Q01DX005 (oral), vehicle: saline): 107 % of control
- T/C (endpoint: mean survival time, dose: 64.0 mg/kg/injection, schedule: Q01DX009 (ip), vehicle: saline): 120 % of control
- T/C (endpoint: mean survival time, dose: 64.0 mg/kg/injection, schedule: Q01DX009 (oral), vehicle: saline): 95 % of control
- T/C (endpoint: mean survival time, dose: 64.0 mg/kg/injection, schedule: Q03HX008 (ip), vehicle: saline): 437 % of control
- T/C (endpoint: mean survival time, dose: 64.0 mg/kg/injection, schedule: Q03HX024 (ip), vehicle: saline): 330 % of control
- T/C (endpoint: mean survival time, dose: 64.0 mg/kg/injection, schedule: Q03HX040 (ip), vehicle: saline): 259 % of control
- T/C (endpoint: mean survival time, dose: 64.0 mg/kg/injection, schedule: Q04DX003 (ip), vehicle: saline): 209 % of control
- T/C (endpoint: mean survival time, dose: 75.0 mg/kg/injection, schedule: Q01DX001 (ip), vehicle: carboxymethylcellulose (CMC)): 332 % of control
- T/C (endpoint: mean survival time, dose: 128.0 mg/kg/injection, schedule: Q01DX001 (ip), vehicle: saline): 198 % of control
- T/C (endpoint: mean survival time, dose: 128.0 mg/kg/injection, schedule: Q01DX001 (oral), vehicle: saline): 330 % of control
- T/C (endpoint: mean survival time, dose: 128.0 mg/kg/injection, schedule: Q03HX008 (ip), vehicle: saline): 437 % of control
- T/C (endpoint: mean survival time, dose: 128.0 mg/kg/injection, schedule: Q03HX040 (ip), vehicle: saline): 86 % of control
- T/C (endpoint: mean survival time, dose: 128.0 mg/kg/injection, schedule: Q04DX003 (oral), vehicle: saline): 110 % of control
- T/C (endpoint: mean survival time, dose: 256.0 mg/kg/injection, schedule: Q04DX003 (oral), vehicle: saline): 86 % of control
- T/C (endpoint: median survival time, dose: 1.0 mg/kg/injection, schedule: Q01DX009 (ip), vehicle: Klucel (hydroxypropylcellulose) (HPC)): 113 % of control and 106 % of control
- T/C (endpoint: median survival time, dose: 2.0 mg/kg/injection, schedule: Q01DX009 (ip), vehicle: Klucel (hydroxypropylcellulose) (HPC)): 113 % of control
- T/C (endpoint: median survival time, dose: 4.0 mg/kg/injection, schedule: Q04DX003 (ip), vehicle: saline + alcohol): 105 % of control
- T/C (endpoint: median survival time, dose: 8.0 mg/kg/injection, schedule: Q04DX003 (ip), vehicle: saline + alcohol): 98 % of control
- T/C (endpoint: median survival time, dose: 8.4 mg/kg/injection, schedule: Q01DX001 (ip), vehicle: distilled water + Tween-80 + alcohol): 94 % of control
- T/C (endpoint: median survival time, dose: 14.0 mg/kg/injection, schedule: Q01DX001 (ip), vehicle: distilled water + Tween-80 + alcohol): 100 % of control
- T/C (endpoint: median survival time, dose: 14.0 mg/kg/injection, schedule: Q07DX003 (ip), vehicle: saline + alcohol): 157 % of control
- T/C (endpoint: median survival time, dose: 16.0 mg/kg/injection, schedule: Q04DX003 (ip), vehicle: saline + alcohol): 109 % of control
- T/C (endpoint: median survival time, dose: 20.0 mg/kg/injection, schedule: Q07DX003 (ip), vehicle: saline + alcohol): 584 % of control
- T/C (endpoint: median survival time, dose: 26.0 mg/kg/injection, schedule: Q07DX003 (ip), vehicle: saline + alcohol): 669 % of control
- T/C (endpoint: median survival time, dose: 27.0 mg/kg/injection, schedule: Q01DX001 (ip), vehicle: carboxymethylcellulose (CMC)): 184 % of control
- T/C (endpoint: median survival time, dose: 32.0 mg/kg/injection, schedule: Q04DX003 (ip), vehicle: saline + alcohol): 438 % of control
- T/C (endpoint: median survival time, dose: 33.0 mg/kg/injection, schedule: Q07DX003 (ip), vehicle: saline + alcohol): 671 % of control
- T/C (endpoint: median survival time, dose: 40.0 mg/kg/injection, schedule: Q01DX001 (ip), vehicle: carboxymethylcellulose (CMC)): 722 % of control
- T/C (endpoint: median survival time, dose: 40.0 mg/kg/injection, schedule: Q01DX001 (ip), vehicle: distilled water + Tween-80 + alcohol): 154 % of control
- T/C (endpoint: median survival time, dose: 64.0 mg/kg/injection, schedule: Q01DX009 (ip), vehicle: Klucel (hydroxypropylcellulose) (HPC)): 96 % of control and 109 % of control
